Values of other authors, collected in US20040197397A1, “Drug delivery system for treatment of urinary incontinence” (Watson Pharmaceuticals, Inc., priority 2002, published 2004).

Details: free base

## CCN(CC)CC#CCOC(=O)C(O)(c1ccccc1)C1CCCCC1 (stereo not shown) [Oxybutynin free base, Oxybutynin]
  pKa: 10.3
